This assay deals with T1, TREK-2 Y315A (Homo sapiens, UniProt P57789, Y310A).
T1 construct: expressed in transfected cells; host or cells: HEK293 cells, transient transfection with pcDNA3
T1 sequence (P57789 1-543 isoform P57789-4 Y315A): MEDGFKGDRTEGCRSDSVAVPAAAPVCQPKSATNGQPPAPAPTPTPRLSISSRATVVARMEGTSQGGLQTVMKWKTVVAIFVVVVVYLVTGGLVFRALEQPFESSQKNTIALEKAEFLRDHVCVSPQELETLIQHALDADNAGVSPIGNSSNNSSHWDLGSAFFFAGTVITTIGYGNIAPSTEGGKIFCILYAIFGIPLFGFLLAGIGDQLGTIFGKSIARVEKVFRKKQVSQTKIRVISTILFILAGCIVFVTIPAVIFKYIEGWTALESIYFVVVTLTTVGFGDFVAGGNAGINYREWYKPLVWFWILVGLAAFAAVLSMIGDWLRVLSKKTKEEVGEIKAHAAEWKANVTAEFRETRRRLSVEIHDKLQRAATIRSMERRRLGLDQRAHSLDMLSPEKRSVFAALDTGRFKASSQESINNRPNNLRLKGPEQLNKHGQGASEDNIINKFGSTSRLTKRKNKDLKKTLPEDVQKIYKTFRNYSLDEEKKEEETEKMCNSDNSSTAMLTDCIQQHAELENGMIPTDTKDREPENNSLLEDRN
As to the kind of experiment: Single-channel recordings of TREK-2 Y315A mutant in excised patches from HEK293 cells. Format: cell-based. The conditions noted are these: 10 µM NFx; before desensitization (effect dramatically reduced within ∼30 s). The procedure:
HEK293 cells were cultured in DMEM (Sigma) containing 10% FBS (Life Technologies), 3 mM glucose, and 2 mM glutamine at 37°C in a humidified atmosphere of 5% CO2/[…] at 37°C. Cells were transiently transfected with 0.2 µg channel pcDNA3 per dish using FuGENE 6 according to the manufacturer’s instructions. Cells were used 1–2 d after transfection.
For currents recorded in Xenopus laevis oocytes, giant-patch electrodes were pulled from thick-walled borosilicate glass and polished to give pipette resistances of ∼0.3–0.5 MΩ when filled with patch solution. […] Patches were perfused via a gravity-flow perfusion system and a HEKA EPC 10 USB single computer–controlled amplifier was used and currents recorded using a Patchmaster v2 × 90.5 (HEKA Electronics), filtered at 1 kHz, and sampled at 10 kHz. For currents recorded in HEK293 cells, patch electrodes were pulled from thick-walled borosilicate glass and polished to give pipette resistances of ∼3–5 MΩ when filled with patch solution. The currents were recorded from excised patches with both intracellular and extracellular solution containing 200 mM KCl and 10 mM HEPES (pH 6.0 with KOH). […] Data were acquired with pClamp and recorded using an Axopatch 200B (Molecular Devices), filtered at 5 kHz, and sampled at 200 kHz. Single-channel currents were analyzed in an identical manner to those obtained from bilayers (see above). […]

The record followed here is paper PMC8155809 (The Journal of General Physiology, 2021).

With `NCCC(Oc1ccc(C(F)(F)F)cc1)c1ccccc1` (stereo not shown) [NFx, norfluoxetine], the “initial reduction of channel Po” value is > 90%.
